In patent publication US7179819B2, “VLA-4 inhibitor compounds” (Daiichi Pharmaceutical Co., Ltd., priority 1999, dated 2007):
Structures can show the parent of a compound that is named as a salt.

Experiments:
[1] = Pharmacokinetic evaluation in mouse; format: in vivo; settings: for AUC (total area under the plasma concentration versus time curve): LC/MS/MS; for clearance / MRT: plasma, 10 mg/kg; for clearance: read-out: CL (apparent plasma clearance); for MRT: read-out: MRT (mean residence time)
[2] = Mouse bio-assay: serum concentration after oral dosing, determined by direct binding assay of diluted serum; settings: oral, 10 mg/kg, 15 minutes post-administration
Protocol: (§1) A compound was dissolved or suspended with an appropriate solvent at 1 mg/mL. Female Balb/c mice (7–9 weeks old) were given the compound orally. Blood samples were collected from the postcaval vein of the anesthetized mice after fifteen minutes. Serum was prepared and stored at −20° C. Serum concentration of the compound was determined from inhibitory activities of the diluted serum by a direct binding assay using VLA-4-expressing cells and VCAM-IgG fusion protein. Serum concentration determined by this method correlated well with the concentration determined by LC/MS/MS methodologies.

[3] = system: eosinophil infiltration; assay: Eosinophil accumulation model in the rat (Compound 48/80 injected into pleural cavities); format: in vivo, male Sprague Dawley rats; settings: b.i.d. at 0 and 8 hours
Protocol: The compounds of the present invention may also be further characterized in other in vivo assays, such as the eosioophil accumulation model tested in the rat. Fifty μg of Compound 48/80 was injected into the pleural cavities of male Sprague Dawley rats. After 24 hrs, each cavity was washed twice with Hank's Balanced Salt Solution containing 0.2% EDTA. Total cell and eosinophil counts were determined. Test compounds were given intraveneously, orally or subcutaneously, b.i.d. at 0 and 8 hours.

[4] = Pharmacokinetic evaluation in rat; format: in vivo; settings: for AUC (total area under the plasma concentration versus time curve): LC/MS/MS; for clearance / MRT: plasma, 10 mg/kg; for clearance: read-out: CL (apparent plasma clearance); for MRT: read-out: MRT (mean residence time)
[5] = system: eosinophil infiltration; assay: Murine model of Ascaris-induced bronchial inflammation: eosinophil infiltration into bronchoalveolar lavage fluid; format: in vivo; settings: mouse
Protocol: The VLA-4 inhibitors may be further characterized in in vivo assays. One such assay examines the inhibition of eosinophil infiltration into the bronchoalveolar lavage fluid in the mouse (murine) model. In this assay, the animals are treated with cyclophosphamide on day 0. On days 2 and 14, the animals are immunized intraperitoneally with Ascaris suum extract. Seven days later, the animals are treated with various doses of the VLA-4 inhibitor. Shortly after drug administration, the animals are challenged with Ascaris suum extract by instillation into the trachea. Bronchoalveolar lavage of the animal is performed by instilling saline into the lung, 48 hours later. Total cell and eosinophil counts in the lavage are determined.

[6] = in vivo; settings: female, Balb/c, mouse, po, 10 mg/kg
Protocol: as §1

[7] = Pharmacokinetic evaluation in monkey, single intravenous dosage; settings: single intravenous dosage (2 mg/kg), LC/MS/MS
[8] = in vivo; settings: monkey, 2 mg/kg
[9] = system: VLA-4-expressing cells; settings: Wang et al. 1995; cited from earlier work
[10] = system: VLA-4-mediated lymphocyte adherence; settings: Molossi et al. 1995; cited from earlier work
[11] = system: accelerated coronary arteriopathy; settings: Molossi et al. 1995; cited from earlier work
[12] = 10 mg/kg (p.o.), line of AUC 0–6 hr
[13] = 10 mg/kg (p.o.), line of AUC 0–∞
[14] = iv, 10 mg/kg (i.v.), line of AUC 0–6 hr
[15] = iv, 10 mg/kg (i.v.), line of AUC 0–∞
[16] = po, 10 mg/kg (p.o.), line of AUC 0–6 hr
[17] = po, 10 mg/kg (p.o.), line of AUC 0–∞

Cc1ccccc1NC(=O)Nc1ccc(CC(=O)N2C[C@@H](F)C[C@H]2COc2ccc(C(=O)O)cc2)cc1Cl [Compound 90, 4-[1-[3-chloro-4-[N′-(2-methylphenyl)ureido]phenylacetyl]-(4S)-fluoro-(2S)-pyrrolidinyl]methoxybenzoic acid]
AUC (total area under the plasma concentration versus time curve) ([1]; 10 mg/kg (i.v.), 0–6 hr): 8995 (0–6 hr) ng · h/mL
AUC (total area under the plasma concentration versus time curve) ([1]; 10 mg/kg (i.v.), 0–∞): 9219 (0–∞) ng · h/mL
AUC (total area under the plasma concentration versus time curve) ([1]; 10 mg/kg (p.o.), 0–6 hr): 2540 (0–6 hr) ng · h/mL
AUC (total area under the plasma concentration versus time curve) ([1]; 10 mg/kg (p.o.), 0–∞): 2950 (0–∞) ng · h/mL
CL (apparent plasma clearance) [1, 12]: 65.62 mL/min/kg
CL (apparent plasma clearance) [1, 13]: 56.50 mL/min/kg
clearance [1, 14]: 18.5 mL/min/kg
MRT [1, 14]: 0.5 h
clearance [1, 15]: 18.1 mL/min/kg
MRT [1, 15]: 0.7 h
MRT [1, 16]: 1.2 h
MRT [1, 17]: 2.5 h
Serum Concentration [2]: 3659 ng/mL
% Inhibition of Eosinophil Infiltration ([3]; 3 mg/kg 2 days, i.v.): 25.4%
% Inhibition of Eosinophil Infiltration ([3]; 10 mg/kg 2 days, i.v.): 46.7%
% Inhibition of Eosinophil Infiltration ([3]; 30 mg/kg 2 days, i.v.): 83.7%
% Inhibition of Eosinophil Infiltration ([3]; 50 mg/kg 2 days, p.o.): 50.5%
AUC (total area under the plasma concentration versus time curve) ([4]; 10 mg/kg (i.v.), 0–6 hr): 31915 (0–6 hr) ng · h/mL
AUC (total area under the plasma concentration versus time curve) ([4]; 10 mg/kg (i.v.), 0–∞): 33488 (0–∞) ng · h/mL
AUC (total area under the plasma concentration versus time curve) ([4]; 10 mg/kg (p.o.), 0–6 hr): 11454 (0–6 hr) ng · h/mL
AUC (total area under the plasma concentration versus time curve) ([4]; 10 mg/kg (p.o.), 0–∞): 19968 (0–∞) ng · h/mL
CL (apparent plasma clearance) [4, 12]: 17.85 mL/min/kg
CL (apparent plasma clearance) [4, 13]: 9.99 mL/min/kg
clearance [4, 14]: 5.23 mL/min/kg
MRT [4, 14]: 0.8 h
clearance [4, 15]: 4.98 mL/min/kg
MRT [4, 15]: 1.1 h
MRT [4, 16]: 1.7 h
MRT [4, 17]: 8.8 h
% Inhibition of Eosinophil Infiltration ([5]; 10 mg/kg t.i.d. × 2 days, p.o.): 18.1%
% Inhibition of Eosinophil Infiltration ([5]; 30 mg/kg b.i.d. × 2 days, i.v.): 47.3%
% Inhibition of Eosinophil Infiltration ([5]; 30 mg/kg t.i.d. × 2 days, p.o.): 39.1%
% Inhibition of Eosinophil Infiltration ([5]; 50 mg/kg t.i.d. × 2 days, p.o.): 45.9%

COC(=O)c1ccc(OC[C@@H]2C[C@@H](N(C)C)CN2C(=O)Cc2ccc(NC(=O)Nc3ccccc3C)c(OC)c2)cc1 [Compound 156, methyl 4-[trans-4-dimethylamino-1-[3-methoxy-4-[N′-(2-methylphenyl)ureido]phenylacetyl]-(2S)-pyrrolidinyl]methoxybenzoate HCl salt]
concentration at 15 min [6]: 285 ng/mL

COc1cc(CC(=O)N2CC(O)C(O)C2C(=O)N2CCN(CC(=O)O)CC2)ccc1NC(=O)Nc1ccccc1C (stereo not drawn) [Compound 195]
AUC (total area under the plasma concentration versus time curve) [7]: 8405 ng·h/mL
clearance ([8]; plasma, iv): 4 mL/min/kg
concentration at 5 min ([8]; serum, intravenous): 65400 ng/mL
concentration at 30 min ([8]; serum, intravenous): 3900 ng/mL
concentration at 1 hr ([8]; serum, intravenous): 2220 ng/mL
concentration at 2 hr ([8]; serum, intravenous): 772 ng/mL
concentration at 4 hr ([8]; serum, intravenous): 194 ng/mL
concentration at 8 hr ([8]; serum, intravenous): 28 ng/mL

CQIDSPC [Synthetic VCAM-1 peptide]
adhesion of VLA-4-expressing cells to purified VCAM-1 [9]: inhibit the adhesion

phenylacetic acid-Leu-Asp-Phe-d-Pro-amide
VLA-4-mediated lymphocyte adherence in vitro [10]: inhibited
accelerated coronary arteriopathy in rabbit cardiac allografts [11]: reduced
